{
  "source": "patent US9801908B2",
  "about": "“Treatment for chitin-containing microorganisms” (BENCHMARK ANIMAL HEALTH LIMITED, priority 2013, dated 2017)",
  "key": {"[1]": {"tested_on": "Saprolegnia spores", "test": "Germination and colonization of Saprolegnia spores on sesame seeds", "type": "cell-based, Saprolegnia parasitica", "parameters": "key to grade of germination and colonization of Saprolegnia spores on sesame seeds: Grade 0: no germination no growing mycelia on the sesame seeds; Grade 1: germinating spores no growing mycelia on the sesame seeds; Grade 2: germinating spores very few growing mycelia on the sesame seeds; Grade 3: germinating spores profuse growing mycelia on the sesame seeds", "settings": "for grade of germination and colonization of Saprolegnia spores on sesame seeds: 48 hours incubation", "method": "BA was diluted to desired concentration in Sterilized Aquarium Water (SAW). […] Saprolegnia zoospores were produced according to the method described previously by Stueland et al. […] Sterilized aquarium water (SAW) was used as a non-treated control and bronopol (Pyceze Vet.® 500 g bronopol/L) was used as a positive control. Each BA concentration and controls were tested in triplicates and incubated at 20° C. 24 hours later, plates were examined microscopically."}, "[2]": {"tested_on": "Saprolegnia hyphae/mycelium", "description": "The plates were observed microscopically to confirm the attachment of the spores to the sesame seeds and the presence of the early growing mycelia. BA was added at 12 h post infection of the sesame seeds at the same concentrations mentioned above to all tested plates except controls. Plates were incubated further at 20° C. SAW was used as non-treated control and bronopol as positive control. Plates were inspected microscopically after 24 h for advanced mycelial growth."}, "[3]": {"tested_on": "Saprolegnia zoosporangia"}, "[4]": {"tested_on": "Saprolegnia spores and zoosporangia", "description": "At indicated time points BA was replaced with SAW. The ability of treated spores to germinate and colonize sesame seeds was recorded 24 h following the treatment removal. Treated zoosporangia were also examined for their ability to release spore. Spores and zoosporangia in SAW were used as a non-treated control. Results were confirmed with fluorescent microscopy using SYTO 9 dye (Invitrogen®) 5 mM solution in DMSO."}, "[5]": {"tested_on": "Saprolegnia sp.", "settings": "4 h once a day", "description": "The experimental design was as described in experiment 1 with the same number of eggs per replicate (N=27±2) and the number of infected eggs introduced per replicate (3 per 27 eggs). The difference was that the eggs were exposed to higher BA concentrations (1, 2, 3, 4 g/L) for 4 h once a day over the course of the experiment which lasted for 14 days in total. After 4 h of treatment the flow of aquarium water was resumed. The same treatment was applied 24 h later and every day up to 14 days. The time between treatments was the same throughout the experiment. The number of dead eggs, presence or absence of infection and hatching rates were recorded over the duration of the experiment.\nInfected dead eggs that were used as source of infection in the BA treated groups and the non-treated control were examined microscopically to observe the effect of BA treatment on the growing mycelia."}, "[6]": {"tested_on": "Saprolegnia spores (S. diclina VIO 2739, S. parasitica VIO 2741, aquarium water)", "settings": "BA 1-4 g/L, 4 hours/day, 14 days", "description": "The ability of BA to protect dead eggs from becoming infected with Saprolegnia spores was investigated. The rationale is that dead eggs may be the first to get infected under natural conditions and act as a source of infection for live eggs. Combined treatment of BA and PA was also tested.\nFive egg groups were used, each group divided equally into 3 smaller sub-groups. 25 live eggs plus 5 dead ones were placed in each of the sub-groups (90 eggs per group). […] In the groups, eggs were supplied with continuous slow water flow of 1 L/min. The aquarium water at the facilities of the Norwegian Veterinary Institute/Norwegian School of Veterinary Science contains Saprolegnia zoospores and was used as source of infection. […] Treatment with BA was carried out as follows. The water flow was stopped and each group, except the non-treated control group, was treated with BA at concentrations of 1, 2, 3, and 4 g/L. The treatment period was 4 hours/day after which water flow was resumed. Dead eggs were inspected daily over 14 days for their colonization with Saprolegnia spores and the presence of growing hypha. Number of dead eggs per group and hatching rates were recorded."}, "[7]": {"tested_on": "Saprolegnia spores", "settings": "BA 0.5 g/L continuous, yolk sac fry, natural outbreak", "excerpt": "The safety of continuous exposure of salmon fry to a low concentration of BA (0.5 g/L) was also investigated to understand what extent BA will protect Atlantic salmon fry from becoming infected by Saprolegnia spores during a natural outbreak of saprolegniosis in the aquarium."}, "[8]": {"tested_on": "Atlantic salmon eyed eggs", "settings": "in vivo"}, "[9]": {"settings": "treated 96 h in BA, then 24 h in SAW"}},
  "note": "Like-named read-outs stand apart in the source and are kept apart here.",
  "data": [
    {"smiles": "OB(O)O", "note": "[boric acid]", "values": [
      {"measurement": "grade of germination and colonization of Saprolegnia spores on sesame seeds", "setting": "[1]; \"boric acid g/L\" (concentration not given)", "value": "Grade 0"},
      {"measurement": "germination of inoculated Saprolegnia spores", "setting": "[1]; BA 1 g/L and above", "value": "did not germinate"},
      {"measurement": "germination and colonization of sesame seeds by Saprolegnia spores", "setting": "[1]; BA below 0.2 g/L", "value": "germinated and colonized sesame seeds"},
      {"measurement": "growth rate compared to the non-treated control", "setting": "[1]; BA below 0.2 g/L", "value": "slow"},
      {"measurement": "grade of germination and colonization of Saprolegnia spores on sesame seeds", "setting": "[1]; boric acid 0.2-0.4 g/L", "value": "Grade 2"},
      {"measurement": "grade of germination and colonization of Saprolegnia spores on sesame seeds", "setting": "[1]; boric acid 0.5-0.9 g/L", "value": "Grade 1"},
      {"measurement": "grade of germination and colonization of Saprolegnia spores on sesame seeds", "setting": "[1]; boric acid <0.2 g/L", "value": "Grade 3"},
      {"measurement": "hyphael growth grade", "setting": "[2]; BA 0.5 g/L and below", "value": "grade 1"},
      {"measurement": "mycelia growth", "setting": "[2]; BA above 0.5 g/L", "value": "no further growth"},
      {"measurement": "production and release of zoospores from young zoosporangia", "setting": "[3]; 1 g/L BA, 12 and 24 h", "value": "interferes with the production and subsequent release of zoospores"},
      {"measurement": "sign observed in zoosporangia after treatment", "setting": "[3]; 1 g/L BA, 12 and 24 h", "value": "Vacuolation of the entire of zoosporangia"},
      {"measurement": "spore production and release from zoosporangia (FIG. 2 b2)", "setting": "[3]; 24 hours exposure to boric acid", "value": "absence of spore production and release"},
      {"measurement": "spore release of zoosporangia 24 h after exposure terminated", "setting": "[4]; BA 1 g/L for 12 h", "value": "showed spore release"},
      {"measurement": "spore release of zoosporangia 24 h after exposure terminated", "setting": "[4]; BA 1 g/L for 24 h", "value": "showed spore release"},
      {"measurement": "spore release of zoosporangia after exposure terminated", "setting": "[4]; BA 1 g/L for 72 h", "value": "no spore release"},
      {"measurement": "spore release of zoosporangia after exposure terminated", "setting": "[4]; BA 1 g/L for 96 h", "value": "no spore release"},
      {"measurement": "colonization of seeds (FIG. 3c-1)", "setting": "[4]; treated 24 h with BA, then 24 h in SAW", "value": "Thin hyphae can be seen projecting out from seeds"},
      {"measurement": "appearance of zoosporangium (FIG. 3d-2)", "setting": "[4]; [9]", "value": "condensed staining and a thin wall"},
      {"measurement": "colonization of seeds (FIG. 3d)", "setting": "[4]; [9]", "value": "no colonization on seeds"},
      {"measurement": "hyphal attachment between infected dead and live eggs", "setting": "[5]; BA 1, 2, 3 or 4 g/L, 14 days", "value": "No hyphal attachment"},
      {"measurement": "mycelium on dead eggs used as source of infection", "setting": "[5]; all treated groups, BA 1-4 g/L", "value": "scanty attachment of mycelium"},
      {"measurement": "attachment between dead and live eggs", "setting": "[6]", "value": "no attachment"},
      {"measurement": "hyphal growth on dead eggs", "setting": "[6]", "value": "No hyphal growth"},
      {"measurement": "fry mortality rates compared to non-treated control", "setting": "[7]", "value": "Significant reduction"},
      {"measurement": "impact on hatchability and viability of eggs or fry", "setting": "[8]", "value": "no negative impact"}
    ]},
    {"smiles": "O=[N+]([O-])C(Br)(CO)CO", "note": "[bronopol, reference compound]", "values": [
      {"measurement": "grade of germination and colonization of Saprolegnia spores on sesame seeds", "setting": "[1]; positive control (Pyceze Vet. 500 g bronopol/L)", "value": "Grade 0"},
      {"measurement": "mortality of eggs", "setting": "[8]; Atlantic salmon, 2 h", "value": 100, "unit": "%"}
    ]}
  ]
}
